Like-named read-outs stand apart in the source and are kept apart here.
Experiments:
[1] = target: T1, AHR (Mus musculus, UniProt P30561); experiment: DRE-Luciferase Reporter Assay, Hepa1.6 (agonist); type: cell-based, murine; conditions: Hepa1.6, Table 3; read-out: DRE-Luc Hepa1.6 - Agonist: Average EC50
T1 sequence (P30561 1-848 F348L/P471L): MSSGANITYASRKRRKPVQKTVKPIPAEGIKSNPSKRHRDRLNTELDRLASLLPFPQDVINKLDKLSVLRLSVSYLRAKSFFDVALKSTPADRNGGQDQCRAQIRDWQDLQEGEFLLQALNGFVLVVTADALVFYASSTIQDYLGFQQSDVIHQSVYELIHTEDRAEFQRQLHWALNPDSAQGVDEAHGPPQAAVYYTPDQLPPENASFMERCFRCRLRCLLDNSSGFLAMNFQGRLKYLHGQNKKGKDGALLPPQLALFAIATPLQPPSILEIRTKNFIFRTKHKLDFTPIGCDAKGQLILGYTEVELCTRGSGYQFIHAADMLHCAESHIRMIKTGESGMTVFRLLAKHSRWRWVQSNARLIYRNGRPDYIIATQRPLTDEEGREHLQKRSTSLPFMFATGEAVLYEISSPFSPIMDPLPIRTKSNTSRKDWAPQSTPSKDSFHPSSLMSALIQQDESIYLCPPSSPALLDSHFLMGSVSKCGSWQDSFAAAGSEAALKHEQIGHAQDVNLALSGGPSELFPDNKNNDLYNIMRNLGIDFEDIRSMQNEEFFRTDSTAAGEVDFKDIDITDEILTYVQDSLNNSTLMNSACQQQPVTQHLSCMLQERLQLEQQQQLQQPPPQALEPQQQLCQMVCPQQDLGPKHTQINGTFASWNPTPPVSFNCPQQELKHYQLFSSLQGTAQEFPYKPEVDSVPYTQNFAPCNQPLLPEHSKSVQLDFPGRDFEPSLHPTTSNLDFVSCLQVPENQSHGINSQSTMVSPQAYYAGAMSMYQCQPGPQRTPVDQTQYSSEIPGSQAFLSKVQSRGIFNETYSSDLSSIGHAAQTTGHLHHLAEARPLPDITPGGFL
Method: DRE-Luciferase Reporter Assay
AHR binds to Dioxin Responsive Elements (DRE) upstream of genes that it activates. One measure of AHR activity is activation of a reporter gene, such as luciferase, downstream of one or multiple DRE elements. Luciferase activity reflects activation and inhibition of AHR in the cells expressing this reporter.
Murine Hepa1-6 or Hepa-1c1c7 or other murine cell line with a DRE-luciferase reporter either stably or transiently transfected are plated in media in plates (96-well, 384-well or other plates) and incubated overnight at 37 C in a CO2 incubator. Likewise, human HepG2 or other human cell line with a DRE-luciferase reporter either stably or transiently transfected are plated in media in plates (96-well, 384-well or other plates) and incubated overnight at 37 C in a CO2 incubator.
The next day, an AHR agonist compound is added. Cells are incubated for 6, 16 or 24 hours or another time point and then lysed for determination of luciferase activity as a read-out of the AHR activation. Luciferase can be measured with a commercial kit such as the Promega Luciferase kit or any kit or reagents that provide the luciferin substrate for measuring luciferase activity. The level of luciferase with only activating ligand (e.g. such as TCDD, kynurenine, ITE (2-(1H-indole-3-ylcarbonyl)-4-thiazolecarboxylic methyl ester), VAF347, BNF (beta-naphthoflavone), ICZ (6-formylindolo(3,2-b) carbazole or other AHR ligands) added is the maximum signal while the luciferase with no ligand is the minimum signal. EC50s can be determined as the concentration which activates half of the maximum luciferase activity.

[2] = test system: DSS model of Inflammatory Bowel Disease (IBD); type: in vivo, C57Bl/6 mice
Method: On study day −1, C57Bl/6 mice are weighed and randomized into treatment groups based on body weight. On study day 0, treatment groups are given 2.5% DSS in drinking water and treatment is initiated on the same day, with either vehicle or AHR agonist compound(s). On study day 7, DSS drinking water is replaced with normal drinking water for the remainder of the study. Body weight is measured daily during the entire study. On study day 10, animals are anesthetized with Isoflurane and bled to exsanguination followed by cervical dislocation. The entire colon is removed and measured for length, weight, and weight per length. Overall efficacy of test AR agonist compounds is based on body weight, colon length, and colon histopathology. Histopathology data is assessed for appropriate parameters, as determined by a pathologist and the parameters for these DSS studies can include inflammation, erosion, gland loss, edema, hyperplasia, neutrophil count, mucosal thickening, lymphoid aggregate count and lymphoid aggregate size. The different parameter scores can be added for a summed score for the study histopathology.

[3] = test system: Cyp1a1 gene expression; design: species or system C57BL/6N mice; conditions: mouse, in vivo
Method: C57BL/6N mice are weighed and randomized into treatment groups with group size of 3-5 mice. On study Day 1, treatment is initiated and necropsies follow on day 1 at 4 and 12 hours post-dose and on Day 2, 24 hours post-dose. On Day 1, mice are dosed orally with one dose of the AHR agonist compound(s) that are in a suspension and mixed well before dosing. At the designated time, animals are euthanized and plasma and tissue taken for compound levels (PK) and compound effect (PD) on gene expression. Liver samples and proximal colon are weighed and then frozen for subsequent RNA extraction and RT-PCR analysis. AHR activation is determined by measuring Cyp1a1 gene expression relative to a housekeeping gene, such as GAPDH or HPRT. Cyp1a1 expression levels in the liver are compared to Cyp1a1 levels in the colon to determine a colon:liver ratio to determine the level of GI preferred AHR activation.

[4] = target: T2, AHR (Homo sapiens, UniProt P35869); experiment: DRE-Luciferase Reporter Assay, HepG2 (agonist); type: cell-based; conditions: HepG2, Table 3; read-out: DRE-Luc HepG2 - Agonist: Average EC50
T2 construct: endogenous in cells; host or cells: HepG2 (human), transfected with a DRE-luciferase reporter only
T2 sequence (P35869 11-848): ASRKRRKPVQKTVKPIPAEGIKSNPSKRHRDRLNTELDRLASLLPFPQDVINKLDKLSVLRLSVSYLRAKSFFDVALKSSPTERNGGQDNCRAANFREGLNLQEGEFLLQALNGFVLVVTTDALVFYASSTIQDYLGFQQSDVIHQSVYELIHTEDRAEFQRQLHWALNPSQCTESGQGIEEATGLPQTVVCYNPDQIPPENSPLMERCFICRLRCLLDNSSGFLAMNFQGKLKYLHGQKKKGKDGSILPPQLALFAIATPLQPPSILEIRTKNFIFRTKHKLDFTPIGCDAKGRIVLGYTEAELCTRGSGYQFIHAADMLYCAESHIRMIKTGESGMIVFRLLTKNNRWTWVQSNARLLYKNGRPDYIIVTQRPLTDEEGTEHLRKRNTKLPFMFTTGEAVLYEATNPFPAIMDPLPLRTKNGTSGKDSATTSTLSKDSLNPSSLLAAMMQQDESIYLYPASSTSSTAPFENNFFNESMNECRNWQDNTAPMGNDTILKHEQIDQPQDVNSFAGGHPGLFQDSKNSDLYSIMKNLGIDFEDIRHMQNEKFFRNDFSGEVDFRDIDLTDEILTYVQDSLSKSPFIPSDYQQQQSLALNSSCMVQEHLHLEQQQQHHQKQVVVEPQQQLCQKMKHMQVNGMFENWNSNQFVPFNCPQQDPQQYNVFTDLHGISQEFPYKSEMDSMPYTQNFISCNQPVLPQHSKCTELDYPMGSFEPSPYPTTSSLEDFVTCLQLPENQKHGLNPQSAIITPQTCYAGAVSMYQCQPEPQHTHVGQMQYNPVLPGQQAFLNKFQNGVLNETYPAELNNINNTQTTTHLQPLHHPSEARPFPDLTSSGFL
How it was run: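 Cells carrying a stably or transiently transfected DRE-luciferase reporter, plated overnight at 37 C, then given agonist for 6, 16 or 24 h before lysis and luciferase read-out. Signal scaled between no ligand (minimum) and activating ligand alone, e.g. TCDD (maximum); EC50 = concentration giving half-maximal luciferase activity.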

Question: O=C(O)c1cccc(/N=N/c2cccc(-c3csc(Nc4cccc(C(F)(F)F)c4)n3)c2)c1 [I-161] was tested. Which EC50 [1] did it give?
Answer: > 1000 nM

Question: And the “inflammation and erosion (histopathology)” value ([2]; DSS model, relative to vehicle control, FIG. 6, FIG. 19)?
Answer: reduced inflammation and erosion

Question: And the “activity at all doses compared with CSA” value ([2]; DSS model, FIG. 18B)?
Answer: comparable or better than CSA

Question: And the “histopathology data compared with CSA” value ([2]; DSS model, FIG. 18B)?
Answer: activity comparable to CSA

Question: And the “inflammation, edema, hyperplasia, and lymphoid aggregate size” value ([2]; DSS model, FIG. 19)?
Answer: reduction

Question: And the “efficacy in DSS IBD mouse model” value ([2]; FIGS. 18A-18B)?
Answer: demonstrates efficacy

Question: What about the “Cyp1a1 induction in the colon” value ([3]; C57BL/6N, po) of the same compound?
Answer: Cyp1a1 induction in the colon at low doses

Question: And the “Cyp1a1 induction in the colon” value [3]?
Answer: comparable

Question: What about the “Cyp1a1 induction in the liver” value [3] of the same compound?
Answer: significantly less induction

Question: What about the “colon:liver ratio of Cyp1a1 expression” value [3] of the same compound?
Answer: colon-preferred activity

Question: And the EC50 [4]?
Answer: 100 to 1000 nM
